Experimental data reported in ChEMBL document CHEMBL1201862, “PubChem BioAssay data set” (2004).
Activity calls are given as the source filed them.

Assays:
[1] = target: T1, Polyadenylate-binding protein 1 (Homo sapiens, UniProt P11940); test: MLLE domain peptide-binding blockers, IC50 – biochemical, fluorescence polarization, FITC-PAM2 peptide, dose response (AID 602259); format: functional; settings: read-out: IC50_Mean
[2] = target: T1, Polyadenylate-binding protein 1; test: MLLE binding blockers, Cy5 peptide tracer – biochemical, fluorescence polarization, Cy5-PAM2 peptide, secondary, miRNA deadenylation inhibitor project, dose response (AID 602260); format: functional; settings: read-out: IC50_Mean
[3] = HIV-1 AD8 envelope cell-cell fusion blockers – cherry-pick, dose response (AID 652062); format: functional, cell-based;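 further: luciferase signal from cell-cell fusion driven by HIV-1 clade B AD8 Env; potency is for inhibitors of fusion seen as a drop in luminescence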
[4] = blockers of HIV-1 envelope-mediated cell-cell fusion – cherry-pick, dose response (AID 652057); format: functional, cell-based
[5] = blockers of HIV-1 ZM109 envelope-driven cell-cell fusion – HeLa effector, CEM target cells, luciferase, cherry-pick, dose response (AID 652058); format: functional, cell-based;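 further: luciferase signal from HIV-1 Env mediated cell-cell fusion of effector and target cells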
[6] = system: BJ; test: BJ-TERT-LT-ST fibroblast viability loss – cell-based, RAS-independent, luminescence, dose response (AID 1935); format: functional; settings: Homo sapiens;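 further: BJ fibroblasts immortalized with TERT plus LT and ST oncogenes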
[7] = DRD fibroblast viability loss – cell-based, non-viral oncogenic, luminescence, dose response (AID 1934); format: functional; settings: Homo sapiens
[8] = system: BJ; test: cells; format: functional, cell-based; settings: Homo sapiens
[9] = target: T2, High affinity choline transporter 1 (Homo sapiens, UniProt Q9GZV3); test: human choline transporter blockers, potency – cell-based, 5-point CRC, membrane potential dye, dose response (AID 504840); format: functional
T2 sequence (Q9GZV3 whole entry): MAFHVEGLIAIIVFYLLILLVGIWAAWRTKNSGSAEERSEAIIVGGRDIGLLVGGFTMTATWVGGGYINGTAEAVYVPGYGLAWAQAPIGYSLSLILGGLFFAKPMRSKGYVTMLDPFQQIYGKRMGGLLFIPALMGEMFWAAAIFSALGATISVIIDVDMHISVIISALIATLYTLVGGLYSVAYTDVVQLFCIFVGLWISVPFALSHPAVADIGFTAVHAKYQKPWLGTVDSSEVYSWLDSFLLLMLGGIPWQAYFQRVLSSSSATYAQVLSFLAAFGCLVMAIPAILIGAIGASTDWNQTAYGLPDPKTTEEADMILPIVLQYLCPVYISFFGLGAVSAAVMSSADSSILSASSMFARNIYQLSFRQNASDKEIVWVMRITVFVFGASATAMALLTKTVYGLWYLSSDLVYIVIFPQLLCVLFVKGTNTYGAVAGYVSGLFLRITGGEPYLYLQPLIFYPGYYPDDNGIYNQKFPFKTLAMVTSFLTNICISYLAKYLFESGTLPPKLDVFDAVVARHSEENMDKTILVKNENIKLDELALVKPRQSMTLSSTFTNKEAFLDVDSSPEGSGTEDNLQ

[10] = system: INS1; test: INS-1E survival protection against cytokine death – cell-based, luminescence, retest, dose response (AID 449756); format: functional; settings: Rattus norvegicus;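 further: cell death triggered by IL-1 beta plus TNF-alpha plus IFN-gamma mixture; protective hits raise ATP signal compared with cytokine alone wells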
[11] = system: BJ; test: BJ-TERT fibroblast viability loss – cell-based, RAS-independent, luminescence, dose response (AID 1933); format: functional; settings: Homo sapiens
[12] = cells; format: functional
[13] = target: T3, Fatty acid synthase (Homo sapiens, UniProt P49327); test: inhibition of human FAS-TE enzyme activity – biochemical, endpoint fluorescence intensity, uHTS hits, dose response (AID 624327); format: functional;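 further: fluorescence from hydrolysis of an O-methyl fluorescein acyl ester substrate by the enzyme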
[14] = Luminescence Cell-Based Dose Retest to Confirm Inhibitors of Cancer Stem Cells. [Related pubchem assays (depositor defined):AID2717, AID2721]; format: functional; settings: Homo sapiens
[15] = target: T3, Fatty acid synthase; test: inhibition of human FAS-TE enzyme activity – biochemical, kinetic fluorescence intensity, dose response (AID 624326); format: functional;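 further: rate of fluorescence rise from hydrolysis of a fluorogenic O-methyl fluorescein ester substrate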
[16] = target: T4, Protein RecA (Mycobacterium tuberculosis, UniProt P9WHJ3); test: Fluorescence Cell-Free Homogeneous Dose Retest to Identify Inhibitors of RecA-Intein Splicing Activity. [Related pubchem assays (depositor defined):AID2097, AID2223, AID489010, AID492950]; format: functional
T4 sequence (P9WHJ3 whole entry): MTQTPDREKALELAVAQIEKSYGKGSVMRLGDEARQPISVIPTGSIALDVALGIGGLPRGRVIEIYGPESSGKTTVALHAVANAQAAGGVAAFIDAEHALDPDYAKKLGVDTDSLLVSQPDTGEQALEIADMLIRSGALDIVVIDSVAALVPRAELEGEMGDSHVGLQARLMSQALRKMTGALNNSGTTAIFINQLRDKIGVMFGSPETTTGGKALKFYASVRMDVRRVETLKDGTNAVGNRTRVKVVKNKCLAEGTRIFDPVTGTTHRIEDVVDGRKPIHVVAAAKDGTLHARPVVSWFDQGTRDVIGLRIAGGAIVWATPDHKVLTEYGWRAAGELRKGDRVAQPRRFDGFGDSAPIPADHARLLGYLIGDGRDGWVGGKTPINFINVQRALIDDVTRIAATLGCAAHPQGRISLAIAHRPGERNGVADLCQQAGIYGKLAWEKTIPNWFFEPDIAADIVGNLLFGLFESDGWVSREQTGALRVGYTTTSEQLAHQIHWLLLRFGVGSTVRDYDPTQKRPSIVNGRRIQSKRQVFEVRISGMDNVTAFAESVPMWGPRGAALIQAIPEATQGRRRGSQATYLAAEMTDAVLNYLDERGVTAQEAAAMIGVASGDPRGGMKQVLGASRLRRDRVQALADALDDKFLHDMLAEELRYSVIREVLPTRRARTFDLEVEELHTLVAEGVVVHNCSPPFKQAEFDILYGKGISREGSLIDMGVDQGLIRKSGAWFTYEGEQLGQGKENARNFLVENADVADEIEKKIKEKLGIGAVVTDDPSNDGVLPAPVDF

[17] = target: T5, Replicative DNA helicase DnaB (Mycobacterium tuberculosis, UniProt P9WMR3); test: DnaB intein splicing inhibitors, dose response, biochemical, cell-free fluorescence (AID 449749); format: functional
T5 sequence (P9WMR3 whole entry): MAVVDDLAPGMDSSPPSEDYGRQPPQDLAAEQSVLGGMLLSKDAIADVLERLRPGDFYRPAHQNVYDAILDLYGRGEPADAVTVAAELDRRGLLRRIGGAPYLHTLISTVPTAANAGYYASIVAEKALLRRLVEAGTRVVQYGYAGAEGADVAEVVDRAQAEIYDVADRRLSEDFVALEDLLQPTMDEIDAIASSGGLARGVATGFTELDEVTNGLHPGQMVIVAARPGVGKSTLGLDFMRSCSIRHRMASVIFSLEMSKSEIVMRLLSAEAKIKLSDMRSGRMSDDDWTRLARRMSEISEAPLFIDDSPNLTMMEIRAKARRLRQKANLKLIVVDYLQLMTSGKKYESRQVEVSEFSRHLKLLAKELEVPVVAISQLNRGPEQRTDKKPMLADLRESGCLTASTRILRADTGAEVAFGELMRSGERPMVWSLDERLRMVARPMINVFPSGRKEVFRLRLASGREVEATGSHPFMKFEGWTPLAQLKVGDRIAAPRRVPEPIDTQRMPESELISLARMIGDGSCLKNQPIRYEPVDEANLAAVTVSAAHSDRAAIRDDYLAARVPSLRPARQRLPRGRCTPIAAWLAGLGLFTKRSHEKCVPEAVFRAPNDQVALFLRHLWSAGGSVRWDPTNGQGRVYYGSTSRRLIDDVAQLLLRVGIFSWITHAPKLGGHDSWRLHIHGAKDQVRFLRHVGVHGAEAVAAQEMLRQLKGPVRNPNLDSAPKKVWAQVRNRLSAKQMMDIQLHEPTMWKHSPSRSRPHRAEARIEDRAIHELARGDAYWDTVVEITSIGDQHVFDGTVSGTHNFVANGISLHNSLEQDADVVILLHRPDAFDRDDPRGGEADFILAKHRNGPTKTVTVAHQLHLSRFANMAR

[18] = target: Large T antigen (Simian virus 40, UniProt P03070); format: functional, Betapolyomavirus macacae;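 further: Confirmatory-stage PubChem screen for compounds that inhibit SV40 T antigen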
[19] = target: T6, Ubiquitin-conjugating enzyme E2 N (Homo sapiens, UniProt P61088); format: functional;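 further: Dose-response confirmation in a TR-FRET assay detecting UBC13-driven polyubiquitin chain formation, inhibition measured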
T6 sequence (P61088 whole entry): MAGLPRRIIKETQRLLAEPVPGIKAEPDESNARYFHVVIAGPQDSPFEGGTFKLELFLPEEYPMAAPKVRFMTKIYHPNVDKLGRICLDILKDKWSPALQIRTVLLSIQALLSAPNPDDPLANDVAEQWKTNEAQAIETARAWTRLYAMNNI

[20] = target: FAD-linked sulfhydryl oxidase ALR (Homo sapiens, UniProt P55789); test: ALR-catalysed DTT oxidation blockers – biochemical, H2O2 detection, luminescence, cherry-pick, dose response (AID 493248)
Chain of FAD-linked sulfhydryl oxidase ALR (P55789 whole entry): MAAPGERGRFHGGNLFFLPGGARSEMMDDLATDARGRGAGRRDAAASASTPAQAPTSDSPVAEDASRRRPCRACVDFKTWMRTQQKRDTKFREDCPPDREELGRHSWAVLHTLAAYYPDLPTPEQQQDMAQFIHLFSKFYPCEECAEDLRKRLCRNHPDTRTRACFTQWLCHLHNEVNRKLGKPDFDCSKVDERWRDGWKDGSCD

T1 sequence (P11940 whole entry, the tested form may be a part): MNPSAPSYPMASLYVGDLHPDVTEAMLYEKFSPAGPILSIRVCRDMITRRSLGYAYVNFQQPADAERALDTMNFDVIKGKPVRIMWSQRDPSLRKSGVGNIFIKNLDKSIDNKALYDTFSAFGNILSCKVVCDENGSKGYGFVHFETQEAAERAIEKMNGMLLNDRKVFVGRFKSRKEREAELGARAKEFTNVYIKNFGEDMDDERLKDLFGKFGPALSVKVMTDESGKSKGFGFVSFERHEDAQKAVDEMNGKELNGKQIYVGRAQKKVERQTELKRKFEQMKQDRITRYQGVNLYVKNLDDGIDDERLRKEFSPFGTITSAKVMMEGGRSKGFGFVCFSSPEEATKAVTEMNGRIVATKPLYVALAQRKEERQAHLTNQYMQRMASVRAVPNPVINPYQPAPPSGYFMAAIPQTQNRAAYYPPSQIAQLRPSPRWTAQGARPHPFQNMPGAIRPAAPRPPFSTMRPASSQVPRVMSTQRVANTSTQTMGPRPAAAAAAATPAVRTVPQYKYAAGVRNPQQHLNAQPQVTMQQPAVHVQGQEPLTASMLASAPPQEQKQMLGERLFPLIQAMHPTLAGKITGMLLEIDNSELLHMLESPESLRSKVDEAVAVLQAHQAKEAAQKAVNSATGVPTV
Chain of Large T antigen (P03070 whole entry): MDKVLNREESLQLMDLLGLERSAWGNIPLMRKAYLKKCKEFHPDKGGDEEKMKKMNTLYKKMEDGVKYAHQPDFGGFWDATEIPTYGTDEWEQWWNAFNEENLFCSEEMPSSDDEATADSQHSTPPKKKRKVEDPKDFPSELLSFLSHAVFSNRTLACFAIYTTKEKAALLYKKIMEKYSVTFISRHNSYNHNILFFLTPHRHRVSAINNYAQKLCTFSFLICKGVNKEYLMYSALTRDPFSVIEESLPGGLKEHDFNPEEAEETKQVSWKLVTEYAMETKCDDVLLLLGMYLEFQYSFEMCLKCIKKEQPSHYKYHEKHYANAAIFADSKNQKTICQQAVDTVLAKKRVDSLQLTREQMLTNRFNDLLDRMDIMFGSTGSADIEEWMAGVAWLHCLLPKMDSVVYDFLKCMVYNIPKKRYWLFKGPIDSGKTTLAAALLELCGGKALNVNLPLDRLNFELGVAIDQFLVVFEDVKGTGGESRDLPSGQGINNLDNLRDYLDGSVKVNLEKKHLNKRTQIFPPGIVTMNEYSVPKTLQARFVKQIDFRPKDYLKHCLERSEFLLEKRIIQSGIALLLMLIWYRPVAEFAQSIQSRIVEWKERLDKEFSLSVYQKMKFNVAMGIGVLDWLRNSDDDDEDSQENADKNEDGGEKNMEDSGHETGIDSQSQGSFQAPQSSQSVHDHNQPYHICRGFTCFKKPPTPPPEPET
T3 sequence (P49327 whole entry): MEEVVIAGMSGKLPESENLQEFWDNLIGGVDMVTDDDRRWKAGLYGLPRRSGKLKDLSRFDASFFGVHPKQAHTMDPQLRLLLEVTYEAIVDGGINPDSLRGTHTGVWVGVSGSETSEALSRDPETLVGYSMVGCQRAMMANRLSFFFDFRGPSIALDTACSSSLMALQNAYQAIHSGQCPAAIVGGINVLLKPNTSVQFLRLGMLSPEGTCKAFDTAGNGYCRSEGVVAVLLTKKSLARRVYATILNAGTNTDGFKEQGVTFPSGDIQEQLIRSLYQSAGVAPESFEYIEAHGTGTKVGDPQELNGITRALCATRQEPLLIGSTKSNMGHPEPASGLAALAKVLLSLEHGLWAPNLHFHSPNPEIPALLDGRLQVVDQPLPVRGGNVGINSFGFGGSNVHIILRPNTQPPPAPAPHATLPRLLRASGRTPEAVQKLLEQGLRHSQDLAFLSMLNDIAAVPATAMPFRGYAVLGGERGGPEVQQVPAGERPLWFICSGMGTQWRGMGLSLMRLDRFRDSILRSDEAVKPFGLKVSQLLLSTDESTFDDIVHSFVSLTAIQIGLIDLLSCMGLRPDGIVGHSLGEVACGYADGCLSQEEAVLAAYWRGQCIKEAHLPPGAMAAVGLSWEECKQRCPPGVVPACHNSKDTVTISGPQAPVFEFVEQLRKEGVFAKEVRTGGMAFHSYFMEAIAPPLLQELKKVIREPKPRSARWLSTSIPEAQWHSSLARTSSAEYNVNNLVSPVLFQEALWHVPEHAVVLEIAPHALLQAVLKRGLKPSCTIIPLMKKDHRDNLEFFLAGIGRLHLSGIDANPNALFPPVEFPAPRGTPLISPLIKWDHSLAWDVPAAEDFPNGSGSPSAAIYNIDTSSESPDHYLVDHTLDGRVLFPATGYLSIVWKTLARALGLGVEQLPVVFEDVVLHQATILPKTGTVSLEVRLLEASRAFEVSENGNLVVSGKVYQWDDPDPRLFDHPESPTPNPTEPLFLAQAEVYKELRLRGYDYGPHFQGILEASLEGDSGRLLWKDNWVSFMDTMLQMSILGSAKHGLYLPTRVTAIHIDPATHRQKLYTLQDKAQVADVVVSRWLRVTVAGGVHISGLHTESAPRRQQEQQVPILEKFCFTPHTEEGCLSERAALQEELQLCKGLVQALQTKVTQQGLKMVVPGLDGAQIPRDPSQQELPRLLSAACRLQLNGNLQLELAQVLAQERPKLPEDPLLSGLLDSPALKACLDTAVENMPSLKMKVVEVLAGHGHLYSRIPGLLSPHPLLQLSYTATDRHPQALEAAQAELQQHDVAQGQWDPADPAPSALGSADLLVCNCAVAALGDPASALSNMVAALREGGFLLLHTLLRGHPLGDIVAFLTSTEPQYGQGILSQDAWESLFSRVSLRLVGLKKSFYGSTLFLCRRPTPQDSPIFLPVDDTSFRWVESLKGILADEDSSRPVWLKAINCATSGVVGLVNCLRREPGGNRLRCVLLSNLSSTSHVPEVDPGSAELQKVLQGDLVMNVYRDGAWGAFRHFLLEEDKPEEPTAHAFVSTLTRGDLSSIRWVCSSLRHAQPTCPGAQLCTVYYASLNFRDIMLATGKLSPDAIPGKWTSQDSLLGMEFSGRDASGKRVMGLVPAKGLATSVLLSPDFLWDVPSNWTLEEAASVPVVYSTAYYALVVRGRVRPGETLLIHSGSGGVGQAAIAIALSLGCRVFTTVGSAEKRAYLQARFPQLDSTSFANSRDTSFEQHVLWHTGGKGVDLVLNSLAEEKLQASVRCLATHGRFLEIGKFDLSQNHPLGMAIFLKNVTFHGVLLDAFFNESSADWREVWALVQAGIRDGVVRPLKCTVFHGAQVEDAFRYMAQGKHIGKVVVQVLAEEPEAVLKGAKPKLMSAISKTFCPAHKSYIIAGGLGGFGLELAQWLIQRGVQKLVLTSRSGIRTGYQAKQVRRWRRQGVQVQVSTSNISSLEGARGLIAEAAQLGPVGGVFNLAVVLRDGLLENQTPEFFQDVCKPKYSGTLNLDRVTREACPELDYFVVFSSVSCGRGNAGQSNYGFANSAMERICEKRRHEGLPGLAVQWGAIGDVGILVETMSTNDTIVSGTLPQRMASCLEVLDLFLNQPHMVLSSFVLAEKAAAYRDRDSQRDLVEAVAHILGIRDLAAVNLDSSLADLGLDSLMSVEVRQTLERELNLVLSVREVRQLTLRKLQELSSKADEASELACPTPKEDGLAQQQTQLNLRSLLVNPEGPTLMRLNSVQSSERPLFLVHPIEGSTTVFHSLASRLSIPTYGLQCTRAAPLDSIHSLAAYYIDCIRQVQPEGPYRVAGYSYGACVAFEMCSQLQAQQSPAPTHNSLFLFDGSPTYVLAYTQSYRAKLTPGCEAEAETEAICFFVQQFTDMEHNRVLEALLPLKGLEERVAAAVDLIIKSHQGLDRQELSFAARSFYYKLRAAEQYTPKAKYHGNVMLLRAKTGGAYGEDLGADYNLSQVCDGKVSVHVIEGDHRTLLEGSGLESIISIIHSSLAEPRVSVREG

NS(=O)(=O)c1cccc2c1c([N+](=O)[O-])cc1nc(O)c(O)nc12
IC50 [1]: > 66 µM (inactive) | IC50 [2]: > 66 µM (inactive)

CO[C@@H](CN(C)S(=O)(=O)c1ccc(Cl)cc1)[C@@H](C)CN([C@H](C)CO)S(=O)(=O)c1cccc(Cl)c1
AC50 [3]: 19.5 µM (active) | AC50 [4]: 1.25 µM (active) | AC50 [5]: 1.1 µM (active)

N#CC(C#N)=C(Nc1ccc(F)cc1)SCc1cccc(F)c1
EC50 [6]: > 150 µM (inconclusive) | EC50 [7]: 29.3 µM (active) | EC50 [8]: 33.2 µM (active) | IC50 [9]: 4.79 µM (active) | AC50 [10]: 3.26 µM (active) | EC50 [11]: 13.1 µM (active)

CS(=O)(=O)Nc1cccc2cccnc12
IC50 [12]: 2.87 µM (active)

CC(C)(C)OC(=O)NCCc1nnc(S(=O)(=O)Cc2ccc(Cl)cc2Cl)o1
IC50 [13]: 4.23 µM (active) | AC50 [14]: 3.94 µM (active) | IC50 [15]: 6.42 µM (active) | EC50 [16]: 4.66 µM (active) | AC50 [17]: 1.61 µM (active) | IC50 [12]: 30.1 µM (active)

Cc1ccc(C(N)=S)c(C)c1
IC50 [1]: > 66 µM (inactive) | IC50 [2]: > 66 µM (inactive)

Cc1nnc(NC(=O)C2c3ccccc3Oc3ccccc32)s1
IC50 [1]: > 66 µM (inactive) | IC50 [2]: > 66 µM (inactive)

COc1ccc(Cc2c(O)nc(SCC(=O)NC34CC5CC(CC(C5)C3)C4)nc2O)cc1
IC50 [1]: > 66 µM (inactive) | IC50 [2]: > 66 µM (inactive)

Cc1ccc(S(=O)(=O)N2[C@@H](c3ccc(Cl)cc3)C(C(=O)O)=CC[C@H]2c2ccc(Cl)cc2)cc1
IC50 [18]: > 100 µM (active) | IC50 [9]: 5.01 µM (active)

CC(/C=N/n1c(S)nnc1-c1cccnc1)=C\c1ccccc1
IC50 [18]: 58.1 µM (active)

COc1ccc2nc3oc(C(=O)NC4CCN(Cc5ccccc5)CC4)cc3cc2c1
IC50 [19]: > 20 µM (inactive)

Cc1nnc(Sc2nc3ccccc3o2)c2ccccc12
IC50 [9]: 13.5 µM (active) | AC50 [20]: 3.26 µM (active) | EC50 [16]: 1.28 µM (active) | AC50 [17]: 18.4 µM (active)
